Source: ChEMBL document CHEMBL4411291, “Synthesis and anti-tumor activity of imidazopyrazines as TAK1 inhibitors” (Eur J Med Chem, 2019)
Blank lines part the entries; values can stand above or below the compound they belong to. Activity calls are given as the source filed them. The calls are words filed in the database; no cut-off is given here.

Legend:
[1] = molecular target: T1, Mitogen-activated protein kinase kinase kinase 7 (Homo sapiens) (UniProt O43318); assay: Inhibition of TAK1 (unknown origin) at 1 uM by LanthaScreen Eu kinase binding assay relative to control
T1 sequence (whole entry): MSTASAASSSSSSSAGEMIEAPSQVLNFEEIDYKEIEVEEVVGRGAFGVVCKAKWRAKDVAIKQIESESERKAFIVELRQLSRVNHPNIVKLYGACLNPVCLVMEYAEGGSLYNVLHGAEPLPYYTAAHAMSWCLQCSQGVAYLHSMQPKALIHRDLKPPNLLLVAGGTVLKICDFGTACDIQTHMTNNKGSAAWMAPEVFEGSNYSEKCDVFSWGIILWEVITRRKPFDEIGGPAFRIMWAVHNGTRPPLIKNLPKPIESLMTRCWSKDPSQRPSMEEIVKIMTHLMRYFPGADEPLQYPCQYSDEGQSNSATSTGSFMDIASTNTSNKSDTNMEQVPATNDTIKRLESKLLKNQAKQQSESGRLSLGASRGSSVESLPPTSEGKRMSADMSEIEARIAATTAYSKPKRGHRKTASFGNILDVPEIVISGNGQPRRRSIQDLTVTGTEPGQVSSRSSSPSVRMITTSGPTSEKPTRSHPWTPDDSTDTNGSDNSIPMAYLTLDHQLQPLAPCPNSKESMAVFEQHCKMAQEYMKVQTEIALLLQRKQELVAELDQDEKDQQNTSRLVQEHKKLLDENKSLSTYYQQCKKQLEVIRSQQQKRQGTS

[2] = molecular target: T1, Mitogen-activated protein kinase kinase kinase 7 (Homo sapiens); assay: Inhibition of TAK1 (unknown origin) at 0.1 uM by LanthaScreen Eu kinase binding assay relative to control
TAK1/TAB1 = TAK1/TAB1 (Homo sapiens, UniProt O43318); assay: Inhibition of N-terminal His-tagged human TAK1 (1 to 303 amino acids)/human TAB1 (437 to 504 amino acids) expressed in baculovirus expression system using fluorescence-labeled substrate by off-chip mobility shift assay
SK-CO-1 = assay: Growth inhibition of human SKCO1 cells after 96 hrs by SRB assay; assay type: functional, cell-based; conditions: SK-CO-1, 96 h
SW-620 [3] = assay: Growth inhibition of human SW620 cells after 96 hrs by SRB assay; assay type: functional, cell-based; conditions: SW-620, 96 h
LoVo = assay: Growth inhibition of human LoVo cells after 96 hrs by SRB assay; assay type: functional, cell-based
SW-620 [4] = assay: Induction of apoptosis in human SW620 cells assessed as Caspase-3 activity at 10 uM after 24 hrs by Caspase-3/7 reagent-based fluorescence assay; assay type: functional, cell-based
[5] = molecular target: T1, Mitogen-activated protein kinase kinase kinase 7 (Homo sapiens); assay: Inhibition of TAK1 phosphorylation in human SW620 cells after 24 hrs by immunoblotting analysis; assay type: cell-based
[6] = Stability in human liver microsomes assessed as parent compound remaining after 60 mins in presence of NADPH by HPLC analysis; assay type: ADME, Microsome; conditions: read-out: Stability
[7] = Stability in mouse liver microsomes assessed as parent compound remaining after 60 mins in presence of NADPH by HPLC analysis; assay type: ADME, Microsome; conditions: read-out: Stability
[8] = Stability in human plasma assessed as parent compound remaining after 6 hrs by LC-MS/MS analysis; assay type: ADME, cell-free; conditions: read-out: Stability
[9] = Stability in mouse plasma assessed as parent compound remaining after 6 hrs by LC-MS/MS analysis; assay type: ADME, cell-free; conditions: read-out: Stability
[10] = AUC (0 to 7 hrs) in ICR mouse at 8.2 mg/kg, po administered as single dose or 3 mg/kg, iv by LC-MS/MS analysis; assay type: ADME, organism-based; conditions: in vivo
[11] = Cmax in ICR mouse at 8.2 mg/kg, po administered as single dose or 3 mg/kg, iv by LC-MS/MS analysis; assay type: ADME, organism-based; conditions: in vivo
[12] = Half life in ICR mouse at 8.2 mg/kg, po administered as single dose or 3 mg/kg, iv by LC-MS/MS analysis; assay type: ADME, organism-based; conditions: in vivo
[13] = Oral bioavailability in ICR mouse at 8.2 mg/kg administered as single dose by LC-MS/MS analysis; assay type: ADME, organism-based; conditions: in vivo
Cytochrome P450 3A4 = Cytochrome P450 3A4 (Homo sapiens, UniProt P08684); assay: Inhibition of CYP3A4 in liver microsomes (unknown origin) using ketoconazole as […] preincubated for 5 mins followed by NADPH addition and measured after 15 mins by LC-MS/MS analysis; assay type: ADME
Cytochrome P450 1A2 = Cytochrome P450 1A2 (Homo sapiens, UniProt P05177); assay: Inhibition of CYP1A2 in liver microsomes (unknown origin) using alpha-naphthoflavone as […] preincubated for 5 mins followed by NADPH addition and measured after 15 mins by LC-MS/MS analysis; assay type: ADME
Cytochrome P450 2C9 = Cytochrome P450 2C9 (Homo sapiens, UniProt P11712); assay: Inhibition of CYP2C9 in liver microsomes (unknown origin) using sulfaphenazole as […] preincubated for 5 mins followed by NADPH addition and measured after 15 mins by LC-MS/MS analysis; assay type: ADME
Cytochrome P450 2C19 = Cytochrome P450 2C19 (Homo sapiens, UniProt P33261); assay: Inhibition of CYP2C19 in liver microsomes (unknown origin) using (+/-) N-3-benzylnirvanol as […] preincubated for 5 mins followed by NADPH addition and measured after 15 mins by LC-MS/MS analysis; assay type: ADME
Cytochrome P450 2B6 = Cytochrome P450 2B6 (Homo sapiens, UniProt P20813); assay: Inhibition of CYP2B6 in liver microsomes (unknown origin) using clopidogrel as […] preincubated for 5 mins followed by NADPH addition and measured after 15 mins by LC-MS/MS analysis; assay type: ADME
[14] = molecular target: Voltage-gated inwardly rectifying potassium channel KCNH2 (Homo sapiens, UniProt Q12809); assay: Binding affinity to human ERG by fluorescence polarization assay
[15] = molecular target: Serine/threonine-protein kinase B-raf (Homo sapiens) (UniProt P15056); assay: Inhibition of BRAF (unknown origin) at 1 uM by LanthaScreen Eu kinase binding assay relative to control
[16] = molecular target: Tyrosine-protein kinase BTK (Homo sapiens) (UniProt Q06187); assay: Inhibition of BTK (unknown origin) at 1 uM by LanthaScreen Eu kinase binding assay relative to control
[17] = molecular target: CDK2/Cyclin A2 (Homo sapiens) (UniProt P24941+P20248); assay: Inhibition of CDK2/cyclin A (unknown origin) at 1 uM by LanthaScreen Eu kinase binding assay relative to control; assay type: protein-complex assay
[18] = molecular target: Epidermal growth factor receptor (Homo sapiens) (UniProt P00533); assay: Inhibition of EGFR (unknown origin) at 1 uM by LanthaScreen Eu kinase binding assay relative to control
[19] = molecular target: Glycogen synthase kinase-3 beta (Homo sapiens) (UniProt P49841); assay: Inhibition of GSK3b (unknown origin) at 1 uM by LanthaScreen Eu kinase binding assay relative to control
[20] = molecular target: Inhibitor of nuclear factor kappa-B kinase subunit beta (Homo sapiens) (UniProt O14920); assay: Inhibition of IKKbeta (unknown origin) at 1 uM by LanthaScreen Eu kinase binding assay relative to control
[21] = molecular target: Mitogen-activated protein kinase 14 (Homo sapiens) (UniProt Q16539); assay: Inhibition of […] (unknown origin) at 1 uM by LanthaScreen Eu kinase binding assay relative to control
[22] = molecular target: High affinity nerve growth factor receptor (Homo sapiens) (UniProt P04629); assay: Inhibition of NTRK1 (unknown origin) at 1 uM by LanthaScreen Eu kinase binding assay relative to control
[23] = molecular target: Platelet-derived growth factor receptor alpha (Homo sapiens) (UniProt P16234); assay: Inhibition of PDGFRalpha (unknown origin) at 1 uM by LanthaScreen Eu kinase binding assay relative to control
[24] = molecular target: Ribosomal protein S6 kinase alpha-1 (Homo sapiens) (UniProt Q15418); assay: Inhibition of RPS6KA1 (unknown origin) at 1 uM by LanthaScreen Eu kinase binding assay relative to control
SW-620 [25] = assay: Antitumor activity against human SW620 cells xenografted in CAnN.Cg-Foxnlnu/Crljbgi nude mouse assessed as tumor growth inhibition at 100 mg/kg, po dosed daily for 14 consecutive days; assay type: functional, organism-based
[26] = Toxicity in CAnN.Cg-Foxnlnu/Crljbgi nude mouse xenografted with human SW620 cells assessed as weight loss at 100 mg/kg, po dosed daily for 14 consecutive days; assay type: organism-based; conditions: in vivo
[27] = Toxicity in CAnN.Cg-Foxnlnu/Crljbgi nude mouse xenografted with human SW620 cells at 100 mg/kg, po dosed daily for 14 consecutive days; assay type: organism-based; conditions: in vivo
[28] = Toxicity in CAnN.Cg-Foxnlnu/Crljbgi nude mouse xenografted with human SW620 cells assessed as weight loss at 30 mg/kg, po dosed daily for 14 consecutive days; assay type: organism-based; conditions: in vivo
SW-620 [29] = assay: Antitumor activity against human SW620 cells xenografted in CAnN.Cg-Foxnlnu/Crljbgi nude mouse assessed as tumor growth inhibition at 30 mg/kg, po dosed daily for 14 consecutive days; assay type: functional, organism-based

Cytochrome P450 2C9, sequence (P11712 whole entry): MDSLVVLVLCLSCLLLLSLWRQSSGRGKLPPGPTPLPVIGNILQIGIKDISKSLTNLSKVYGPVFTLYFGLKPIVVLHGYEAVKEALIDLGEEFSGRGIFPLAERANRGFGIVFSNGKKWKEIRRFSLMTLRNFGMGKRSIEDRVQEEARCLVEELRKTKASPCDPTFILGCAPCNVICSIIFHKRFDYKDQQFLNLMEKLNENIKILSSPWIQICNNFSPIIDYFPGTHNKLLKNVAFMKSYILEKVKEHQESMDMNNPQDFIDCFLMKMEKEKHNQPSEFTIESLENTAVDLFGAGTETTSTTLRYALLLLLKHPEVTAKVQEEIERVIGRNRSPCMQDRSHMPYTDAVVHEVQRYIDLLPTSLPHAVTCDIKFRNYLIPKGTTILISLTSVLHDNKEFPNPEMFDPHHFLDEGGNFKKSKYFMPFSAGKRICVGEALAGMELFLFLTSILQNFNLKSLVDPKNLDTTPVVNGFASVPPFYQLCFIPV
Ribosomal protein S6 kinase alpha-1 (Homo sapiens), sequence (Q15418 whole entry): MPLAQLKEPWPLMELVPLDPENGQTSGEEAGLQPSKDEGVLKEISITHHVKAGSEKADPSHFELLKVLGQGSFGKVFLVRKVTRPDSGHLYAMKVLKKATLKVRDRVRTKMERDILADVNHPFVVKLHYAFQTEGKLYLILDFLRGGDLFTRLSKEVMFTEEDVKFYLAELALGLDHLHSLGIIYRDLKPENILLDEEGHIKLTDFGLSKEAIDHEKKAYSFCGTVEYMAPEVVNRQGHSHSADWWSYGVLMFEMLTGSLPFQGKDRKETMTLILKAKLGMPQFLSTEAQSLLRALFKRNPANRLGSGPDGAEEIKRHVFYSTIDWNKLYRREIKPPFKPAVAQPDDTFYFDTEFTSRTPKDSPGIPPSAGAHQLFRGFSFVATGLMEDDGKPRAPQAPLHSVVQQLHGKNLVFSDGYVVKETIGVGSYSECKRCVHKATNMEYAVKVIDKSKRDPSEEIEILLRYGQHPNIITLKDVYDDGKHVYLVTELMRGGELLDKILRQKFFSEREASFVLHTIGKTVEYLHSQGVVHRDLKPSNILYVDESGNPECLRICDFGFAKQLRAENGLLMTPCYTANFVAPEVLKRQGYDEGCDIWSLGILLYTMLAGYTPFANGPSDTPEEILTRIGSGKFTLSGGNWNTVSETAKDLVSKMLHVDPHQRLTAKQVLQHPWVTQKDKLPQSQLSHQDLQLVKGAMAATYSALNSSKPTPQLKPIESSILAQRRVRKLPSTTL
Cytochrome P450 1A2, sequence (P05177 whole entry): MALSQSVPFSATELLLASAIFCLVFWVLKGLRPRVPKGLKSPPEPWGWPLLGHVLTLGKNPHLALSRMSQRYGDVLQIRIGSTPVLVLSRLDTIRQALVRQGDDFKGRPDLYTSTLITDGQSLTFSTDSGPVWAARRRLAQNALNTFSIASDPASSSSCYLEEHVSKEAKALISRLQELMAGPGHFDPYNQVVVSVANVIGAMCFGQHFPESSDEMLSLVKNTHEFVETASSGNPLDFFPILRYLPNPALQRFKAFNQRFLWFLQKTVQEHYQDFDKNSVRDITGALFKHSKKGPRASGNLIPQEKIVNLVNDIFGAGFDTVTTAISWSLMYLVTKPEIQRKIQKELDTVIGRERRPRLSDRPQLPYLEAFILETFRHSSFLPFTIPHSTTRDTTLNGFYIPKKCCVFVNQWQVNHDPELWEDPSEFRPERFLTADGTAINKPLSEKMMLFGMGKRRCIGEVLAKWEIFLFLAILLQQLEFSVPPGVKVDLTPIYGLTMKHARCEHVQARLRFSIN
Inhibitor of nuclear factor kappa-B kinase subunit beta (Homo sapiens), sequence (O14920 whole entry): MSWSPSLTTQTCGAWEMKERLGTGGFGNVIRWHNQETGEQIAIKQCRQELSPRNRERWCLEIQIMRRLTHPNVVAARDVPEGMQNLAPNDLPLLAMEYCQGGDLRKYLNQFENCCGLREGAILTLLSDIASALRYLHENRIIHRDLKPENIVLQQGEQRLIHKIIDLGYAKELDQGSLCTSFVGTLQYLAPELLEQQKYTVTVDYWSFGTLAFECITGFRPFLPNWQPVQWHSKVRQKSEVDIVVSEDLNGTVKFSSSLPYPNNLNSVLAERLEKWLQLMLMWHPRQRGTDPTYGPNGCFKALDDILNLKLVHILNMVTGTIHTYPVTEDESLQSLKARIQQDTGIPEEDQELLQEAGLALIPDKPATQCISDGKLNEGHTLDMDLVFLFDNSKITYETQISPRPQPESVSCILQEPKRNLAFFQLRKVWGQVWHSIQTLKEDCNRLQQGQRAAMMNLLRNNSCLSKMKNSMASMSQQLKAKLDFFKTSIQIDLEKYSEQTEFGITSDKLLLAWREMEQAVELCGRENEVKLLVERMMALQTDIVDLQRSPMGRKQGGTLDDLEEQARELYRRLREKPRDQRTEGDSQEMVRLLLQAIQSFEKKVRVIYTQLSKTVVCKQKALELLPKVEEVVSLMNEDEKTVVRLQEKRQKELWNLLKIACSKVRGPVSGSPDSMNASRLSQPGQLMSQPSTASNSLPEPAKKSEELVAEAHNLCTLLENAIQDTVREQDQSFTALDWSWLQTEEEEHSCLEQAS
Platelet-derived growth factor receptor alpha (Homo sapiens), sequence (P16234 whole entry): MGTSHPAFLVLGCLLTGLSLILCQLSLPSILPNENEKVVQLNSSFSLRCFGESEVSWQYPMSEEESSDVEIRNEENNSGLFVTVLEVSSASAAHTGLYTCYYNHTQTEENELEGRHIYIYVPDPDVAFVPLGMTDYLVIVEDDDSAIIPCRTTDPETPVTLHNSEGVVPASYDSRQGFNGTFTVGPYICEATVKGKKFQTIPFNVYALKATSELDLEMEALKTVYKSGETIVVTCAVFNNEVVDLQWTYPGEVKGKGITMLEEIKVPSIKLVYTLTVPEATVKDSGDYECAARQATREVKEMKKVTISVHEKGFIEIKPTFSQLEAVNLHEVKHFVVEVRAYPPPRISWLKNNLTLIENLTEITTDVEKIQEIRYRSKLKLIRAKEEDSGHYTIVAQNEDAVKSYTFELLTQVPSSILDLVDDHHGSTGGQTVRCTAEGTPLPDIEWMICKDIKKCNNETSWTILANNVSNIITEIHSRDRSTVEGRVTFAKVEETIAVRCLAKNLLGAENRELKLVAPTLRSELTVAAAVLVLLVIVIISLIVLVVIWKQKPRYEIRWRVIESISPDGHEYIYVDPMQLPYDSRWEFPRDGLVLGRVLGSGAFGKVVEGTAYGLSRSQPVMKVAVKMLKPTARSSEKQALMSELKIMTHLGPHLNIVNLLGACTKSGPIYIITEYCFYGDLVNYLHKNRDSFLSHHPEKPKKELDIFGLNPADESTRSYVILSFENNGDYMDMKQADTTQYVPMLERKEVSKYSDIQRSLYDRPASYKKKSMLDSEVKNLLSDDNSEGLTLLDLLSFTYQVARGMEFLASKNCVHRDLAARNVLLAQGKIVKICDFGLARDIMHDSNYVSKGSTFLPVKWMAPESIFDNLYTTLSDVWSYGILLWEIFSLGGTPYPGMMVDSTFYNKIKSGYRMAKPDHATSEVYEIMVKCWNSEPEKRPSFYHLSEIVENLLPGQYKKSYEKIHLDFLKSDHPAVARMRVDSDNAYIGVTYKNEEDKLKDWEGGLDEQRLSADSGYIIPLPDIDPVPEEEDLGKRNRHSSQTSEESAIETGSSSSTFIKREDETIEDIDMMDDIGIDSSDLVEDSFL
Voltage-gated inwardly rectifying potassium channel KCNH2, sequence (Q12809 whole entry): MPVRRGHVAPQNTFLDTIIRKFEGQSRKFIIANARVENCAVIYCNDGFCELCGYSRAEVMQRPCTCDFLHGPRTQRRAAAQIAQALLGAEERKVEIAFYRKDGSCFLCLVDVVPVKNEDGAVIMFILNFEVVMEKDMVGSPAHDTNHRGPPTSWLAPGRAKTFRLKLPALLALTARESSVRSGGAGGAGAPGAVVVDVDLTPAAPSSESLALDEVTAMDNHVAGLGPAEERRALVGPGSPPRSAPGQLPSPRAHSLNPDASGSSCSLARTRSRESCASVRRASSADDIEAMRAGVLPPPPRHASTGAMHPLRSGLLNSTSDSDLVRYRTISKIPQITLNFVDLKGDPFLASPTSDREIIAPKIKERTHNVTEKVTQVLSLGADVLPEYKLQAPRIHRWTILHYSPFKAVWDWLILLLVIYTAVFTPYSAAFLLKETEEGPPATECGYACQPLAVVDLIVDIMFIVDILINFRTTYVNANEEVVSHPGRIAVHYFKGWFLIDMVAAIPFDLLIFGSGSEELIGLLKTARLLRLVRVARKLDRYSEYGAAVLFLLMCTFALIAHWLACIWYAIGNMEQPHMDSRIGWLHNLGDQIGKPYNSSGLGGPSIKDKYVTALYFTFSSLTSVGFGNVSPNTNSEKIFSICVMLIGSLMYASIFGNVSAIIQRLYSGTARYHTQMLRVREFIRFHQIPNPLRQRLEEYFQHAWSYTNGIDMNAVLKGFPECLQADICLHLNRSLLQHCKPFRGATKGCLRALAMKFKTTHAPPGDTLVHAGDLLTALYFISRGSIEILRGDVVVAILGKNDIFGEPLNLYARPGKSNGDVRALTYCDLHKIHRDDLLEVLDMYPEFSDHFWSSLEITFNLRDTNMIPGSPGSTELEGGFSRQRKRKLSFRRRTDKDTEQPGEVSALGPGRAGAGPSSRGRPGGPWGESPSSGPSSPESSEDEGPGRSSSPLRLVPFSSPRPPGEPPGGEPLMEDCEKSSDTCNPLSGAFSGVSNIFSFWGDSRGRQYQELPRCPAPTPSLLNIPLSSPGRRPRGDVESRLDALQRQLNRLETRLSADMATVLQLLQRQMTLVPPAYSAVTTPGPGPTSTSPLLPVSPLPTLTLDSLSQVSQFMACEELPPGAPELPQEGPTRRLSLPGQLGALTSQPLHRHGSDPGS

inhibition [1]: 80%
inhibition [2]: 24%
SMILES: Cc1cc(NC(=O)Nc2cc(C(C)(C)C)nn2-c2ccccc2)ccc1-c1cnc(NC2CC2)c2ncnn12

inhibition [1]: 0%
inhibition [2]: 0%
SMILES: Cc1ccc(C(=O)Nc2cc(C(C)(C)C)nn2-c2ccccc2)cc1Oc1cnc(NC2CC2)c2nccn12

IC50 (TAK1/TAB1): 37 nM
inhibition [1]: 98%
inhibition [2]: 56%
IC50 (SK-CO-1): 274 nM
IC50 (SW-620 [3]): 330 nM
IC50 (LoVo): 391 nM
inhibition [5]: Dose-dependent effect
remaining at 1 h [6]: 37%
remaining at 1 h [7]: 44%
remaining at 6 h [8]: 90%
remaining at 6 h [9]: 88%
AUC(0-t) [10]: 3140 ng·h/mL
Cmax [11]: 1930 ng/mL
half-life [12]: 1.6 h
bioavailability [13]: 25.2%
IC50 (Cytochrome P450 3A4): 3520 nM
IC50 (Cytochrome P450 1A2): > 25000 nM
IC50 (Cytochrome P450 2C9): 3500 nM
IC50 (Cytochrome P450 2C19): > 25000 nM
IC50 (Cytochrome P450 2B6): > 25000 nM
inhibition [15]: 37%
inhibition [16]: 0%
inhibition [17]: 1%
inhibition [18]: 45%
inhibition [19]: 51%
inhibition [20]: 0%
inhibition [21]: 82%
inhibition [22]: 82%
inhibition [23]: 88%
inhibition [24]: 4%
SMILES: Cc1cc(NC(=O)Nc2cc(C(C)(C)C)nn2-c2ccccc2)ccc1-c1cnc(NC2CC2)c2nccn12
Activity (SW-620 [4]): Active
IC50 [14]: > 50000 nM
Activity (SW-620 [25]): Active
Activity [26]: Non-Toxic
Activity [27]: Non-Toxic

inhibition [1]: 90%
inhibition [2]: 26%
SMILES: Cc1cc(NC(=O)Nc2cc(C(C)(C)C)nn2-c2cccc([N+](=O)[O-])c2)ccc1-c1cnc(NC2CC2)c2ncnn12

inhibition [1]: 30%
inhibition [2]: 0%
SMILES: Cc1cc(NC(=O)Nc2cc(C(C)(C)C)nn2-c2ccccc2)ccc1Oc1cn2ccnc2c(NC2CC2)n1

inhibition [1]: 89%
inhibition [2]: 43%
SMILES: Cc1cc(NC(=O)Nc2cc(C(C)(C)C)nn2-c2cccnc2)ccc1-c1cnc(NC2CC2)c2nccn12

inhibition [1]: 98%
inhibition [2]: 96%
IC50 (SK-CO-1): 61 nM
IC50 (SW-620 [3]): 38 nM
IC50 (LoVo): 75 nM
SMILES: CCc1cc(Nc2ncc(F)c(-c3cnc4cccnn34)n2)cc(OCCN2CCC(O)CC2)c1
Activity [28]: Toxic
TGI (SW-620 [29]): Active

inhibition [1]: 90%
inhibition [2]: 20%
SMILES: Cc1cc(NC(=O)Nc2cc(C(C)(C)C)nn2-c2ccccc2)ccc1Oc1cnc(NC2CC2)c2nccn12

inhibition [1]: 91%
inhibition [2]: 7%
SMILES: Cc1ccc(-n2nc(C(C)(C)C)cc2NC(=O)Nc2ccc(-c3cnc(NC4CC4)c4nccn34)c(C)c2)cc1
